# Reference: patent US6103720A, “Ketobenzamides as calpain inhibitors” (BASF Aktiengesellschaft, priority 1996, dated 2000)
# pKi: −log10 of the molar value.
# Legend:
# [1] = tested on: calpain; conditions: M. R. Angelastro et al., J. Med. Chem. 1990,33, 11-13; cited from earlier work
# [2] = target: T1, Human μ-calpain (Homo sapiens, UniProt P07384); experiment: Calpain I test (Ki, fluorogenic substrate Suc-Leu-Tyr-AMC); assay type: biochemical; conditions: human μ-calpain from erythrocytes, reversible inhibition
# T1 construct: Human μ-calpain is isolated from erythrocytes; from tissue; host or cells: human erythrocytes (purified on DEAE Sepharose, phenyl Sepharose, Superdex 200 and Blue Sepharose)
# T1 sequence (P07384 1-714): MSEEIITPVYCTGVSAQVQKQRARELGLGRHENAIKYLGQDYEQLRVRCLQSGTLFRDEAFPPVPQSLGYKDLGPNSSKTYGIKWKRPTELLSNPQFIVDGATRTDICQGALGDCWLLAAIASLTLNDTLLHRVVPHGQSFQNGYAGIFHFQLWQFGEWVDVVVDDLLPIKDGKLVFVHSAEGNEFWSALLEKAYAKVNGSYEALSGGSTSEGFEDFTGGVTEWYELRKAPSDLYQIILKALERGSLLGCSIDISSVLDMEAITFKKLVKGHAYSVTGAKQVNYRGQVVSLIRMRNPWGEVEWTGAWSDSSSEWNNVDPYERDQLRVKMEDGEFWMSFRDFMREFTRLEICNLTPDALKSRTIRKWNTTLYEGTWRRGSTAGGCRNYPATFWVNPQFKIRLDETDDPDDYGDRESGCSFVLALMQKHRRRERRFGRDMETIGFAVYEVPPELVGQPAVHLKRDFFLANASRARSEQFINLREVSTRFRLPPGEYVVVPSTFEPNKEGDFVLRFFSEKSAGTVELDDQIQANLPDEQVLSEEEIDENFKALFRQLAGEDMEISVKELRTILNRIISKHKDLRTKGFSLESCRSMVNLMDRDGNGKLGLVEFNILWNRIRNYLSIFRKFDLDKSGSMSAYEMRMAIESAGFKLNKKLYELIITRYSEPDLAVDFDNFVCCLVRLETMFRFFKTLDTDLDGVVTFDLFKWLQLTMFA
# T1 sequence (P04632 1-268 partner): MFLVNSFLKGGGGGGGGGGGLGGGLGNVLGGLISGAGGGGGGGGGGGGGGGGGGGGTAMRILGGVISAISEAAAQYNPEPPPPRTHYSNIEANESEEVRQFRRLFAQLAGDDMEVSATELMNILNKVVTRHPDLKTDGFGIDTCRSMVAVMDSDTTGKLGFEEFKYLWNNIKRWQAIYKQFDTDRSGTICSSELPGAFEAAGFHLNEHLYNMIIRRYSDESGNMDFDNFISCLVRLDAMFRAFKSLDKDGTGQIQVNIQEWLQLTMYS
# Protocol: Calpain I and Calpain II Test
# The inhibitory properties of calpain inhibitors are tested in buffer containing 50 mM tris-HCl, pH 7.5; 0.1 M NaCl; 1 mM dithiotreithol [sic]: 0.11 mM CaCl2, using the fluorogenic calpain substrate Suc-Leu-Tyr-AMC (25 mM, dissolved in DMSO, Bachem/Switzerland) (Sasaki et al. J. Biol. Chem. 1984, Vol. 259, 12489-12494). Human μ-calpain is isolated from erythrocytes following the methods of Croall and DeMartino (BBA 1984, Vol. 788, 348-355) and Graybill et al. (Bioorg. & Med. Lett. 1995, Vol. 5, 387-392). After several chromatographic steps (DEAE Sepharose, phenyl Sepharose, Superdex 200 and Blue Sepharose), the enzyme is obtained at a purity of […], as assessed by SDS-PAGE, Western blot analysis and N-terminal sequencing. The fluorescence of the cleavage product 7-amino-4-methylcoumarin (AMC) is followed in a Spex-Fluorolog fluorimeter at λex =380 nm and λem =460 nm. […]
# In a typical experimental mixture, 10 μl of substrate (250 μm final concentration) and then 10 μl of μ-calpain (2 μg/ml final concentration, ie. 18 nM) are added to a 1 ml cuvette which contains buffer. The calpain-mediated cleavage of the substrate is measured for from 15 to 20 min. […] Ki values are determined using the customary equation for reversible inhibition, ie. […]
pKi [2],Molecule,inhibitor of calpain (in words) [1]
,COC(=O)C(=O)C(Cc1ccccc1)NC(=O)c1ccccc1 (centres unmarked) [Ph-CONH--CH(CH2 Ph)--CO--COOCH3],weak inhibitor
> 5.00,(S)-N-(1-Ethoxycarbonyl-1-oxo-3-phenylpropan-2-yl)-2-phenylbenzamide [Example 24],
